Laboratory results as given in ChEMBL document CHEMBL1909294, “Translating clinical findings into knowledge in drug safety evaluation--drug induced liver injury prediction system (DILIps)” (PLoS Comput Biol, 2011).

Experiments:
Hepatotoxicity [1] = system: Hepatotoxicity;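 on HepSE Combined Scores: combined hepatic side effect score as listed in the training data of the Drug Induced Liver Injury Prediction System (DILIps)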;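 on HepSE bilirubinemia: bilirubinemia hepatic side effect score drawn from the DILIps training data, a prediction system for drug-induced liver injury; call rule not given here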;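 on HepSE cholecystitis: Cholecystitis-related hepatic side effect score drawn from the DILIps (drug-induced liver injury prediction) training data set; call rule not given here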;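 on HepSE elevated liver function tests: hepatic side effect score for raised liver function tests, as recorded in the DILIps training set used for predicting drug-induced liver injury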;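 on HepSE hepatomegaly: hepatic side effect score for hepatomegaly, taken from the training set of the DILIps drug-induced liver injury prediction system; call rule not given here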; on HepSE liver disease: call rule not given here;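 on HepSE liver function tests abnormal: hepatic side effect score taken from the DILIps (drug-induced liver injury prediction system) training data, here covering abnormal liver function test findings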
Hepatotoxicity [2] = system: Hepatotoxicity; remark: listed apart in the source;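 on HepSE Combined Scores: combined hepatic side effect score as listed in the training data of the Drug Induced Liver Injury Prediction System (DILIps)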;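 on HepSE bilirubinemia: bilirubinemia hepatic side effect score drawn from the DILIps training data, a prediction system for drug-induced liver injury; call rule not given here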;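 on HepSE cholecystitis: Cholecystitis-related hepatic side effect score drawn from the DILIps (drug-induced liver injury prediction) training data set; call rule not given here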;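 on HepSE hepatomegaly: hepatic side effect score for hepatomegaly, taken from the training set of the DILIps drug-induced liver injury prediction system; call rule not given here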; on HepSE liver disease: call rule not given here;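 on HepSE liver function tests abnormal: hepatic side effect score taken from the DILIps (drug-induced liver injury prediction system) training data, here covering abnormal liver function test findings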
Hepatotoxicity [3] = system: Hepatotoxicity; remark: listed apart in the source;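 on HepSE Combined Scores: combined hepatic side effect score as listed in the training data of the Drug Induced Liver Injury Prediction System (DILIps)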;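 on HepSE bilirubinemia: bilirubinemia hepatic side effect score drawn from the DILIps training data, a prediction system for drug-induced liver injury; call rule not given here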;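 on HepSE cholecystitis: Cholecystitis-related hepatic side effect score drawn from the DILIps (drug-induced liver injury prediction) training data set; call rule not given here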;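 on HepSE hepatomegaly: hepatic side effect score for hepatomegaly, taken from the training set of the DILIps drug-induced liver injury prediction system; call rule not given here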; on HepSE liver disease: call rule not given here;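 on HepSE liver function tests abnormal: hepatic side effect score taken from the DILIps (drug-induced liver injury prediction system) training data, here covering abnormal liver function test findings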
Hepatotoxicity [4] = system: Hepatotoxicity; remark: listed apart in the source;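 on HepSE Combined Scores: combined hepatic side effect score as listed in the training data of the Drug Induced Liver Injury Prediction System (DILIps)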;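 on HepSE bilirubinemia: bilirubinemia hepatic side effect score drawn from the DILIps training data, a prediction system for drug-induced liver injury; call rule not given here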;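 on HepSE cholecystitis: Cholecystitis-related hepatic side effect score drawn from the DILIps (drug-induced liver injury prediction) training data set; call rule not given here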;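 on HepSE hepatomegaly: hepatic side effect score for hepatomegaly, taken from the training set of the DILIps drug-induced liver injury prediction system; call rule not given here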; on HepSE liver disease: call rule not given here;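 on HepSE liver function tests abnormal: hepatic side effect score taken from the DILIps (drug-induced liver injury prediction system) training data, here covering abnormal liver function test findings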
Hepatotoxicity [5] = system: Hepatotoxicity; remark: listed apart in the source; on HepSE liver disease: call rule not given here
Hepatotoxicity [6] = system: Hepatotoxicity; remark: listed apart in the source; on HepSE liver disease: call rule not given here
Hepatotoxicity [7] = system: Hepatotoxicity; remark: listed apart in the source
Hepatotoxicity [8] = system: Hepatotoxicity; remark: listed apart in the source
Hepatotoxicity [9] = system: Hepatotoxicity; remark: listed apart in the source
Hepatotoxicity [10] = system: Hepatotoxicity; remark: listed apart in the source
Hepatotoxicity [11] = system: Hepatotoxicity; remark: listed apart in the source
Hepatotoxicity [12] = system: Hepatotoxicity; remark: listed apart in the source
Hepatotoxicity [13] = system: Hepatotoxicity; remark: listed apart in the source
Hepatotoxicity [14] = system: Hepatotoxicity; remark: listed apart in the source

Compound | HepSE_cholecystitis (Hepatotoxicity [1]; Liver) | HepSE_liver function tests abnormal (Hepatotoxicity [2]; Liver) | HepSE_hepatomegaly (Hepatotoxicity [3]; Liver) | HepSE_bilirubinemia (Hepatotoxicity [4]; Liver) | HepSE_Combined Scores (Hepatotoxicity [5]; Liver) | HepSE_liver disease (Hepatotoxicity [6]; Liver) | HepSE_cholecystitis (Hepatotoxicity [1]) | HepSE_liver function tests abnormal (Hepatotoxicity [2]) | HepSE_hepatomegaly (Hepatotoxicity [3]) | HepSE_bilirubinemia (Hepatotoxicity [4]) | HepSE_Combined Scores (Hepatotoxicity [5]) | HepSE_liver disease (Hepatotoxicity [6]) | HepSE_elevated liver function tests (Hepatotoxicity [7]) | HepSE_cholelithiasis (Hepatotoxicity [8]) | HepSE_cirrhosis (Hepatotoxicity [9]) | HepSE_liver fatty (Hepatotoxicity [10]) | HepSE_hepatitis (Hepatotoxicity [11]) | HepSE_hepatic necrosis (Hepatotoxicity [12]) | HepSE_hepatic failure (Hepatotoxicity [13]) | HepSE_jaundice (Hepatotoxicity [14]) | other results
CC(C)NCC(O)COc1ccc(CCOCC2CC2)cc1 (configuration not stated) [BETAXOLOL] | 0 | 0 | 0 | 0 | 0 | 0 |  |  |  |  |  |  |  |  |  |  |  |  |  |  | HepSE_elevated liver function tests (Hepatotoxicity [7]; Liver): 0; HepSE_cholelithiasis (Hepatotoxicity [8]; Liver): 0; HepSE_cirrhosis (Hepatotoxicity [9]; Liver): 0; HepSE_liver fatty (Hepatotoxicity [10]; Liver): 0; HepSE_hepatitis (Hepatotoxicity [11]; Liver): 0; HepSE_hepatic necrosis (Hepatotoxicity [12]; Liver): 0; HepSE_hepatic failure (Hepatotoxicity [13]; Liver): 0; HepSE_jaundice (Hepatotoxicity [14]; Liver): 0
CC(C[N+](C)(C)C)OC(N)=O (configuration not stated) [BETHANECHOL] | 0 | 0 | 0 | 0 | 0 | 0 |  |  |  |  |  |  |  |  |  |  |  |  |  |  | HepSE_elevated liver function tests (Hepatotoxicity [7]; Liver): 0; HepSE_cholelithiasis (Hepatotoxicity [8]; Liver): 0; HepSE_cirrhosis (Hepatotoxicity [9]; Liver): 0; HepSE_liver fatty (Hepatotoxicity [10]; Liver): 0; HepSE_hepatitis (Hepatotoxicity [11]; Liver): 0; HepSE_hepatic necrosis (Hepatotoxicity [12]; Liver): 0; HepSE_hepatic failure (Hepatotoxicity [13]; Liver): 0; HepSE_jaundice (Hepatotoxicity [14]; Liver): 0
C=C(c1ccc(C(=O)O)cc1)c1cc2c(cc1C)C(C)(C)CCC2(C)C [BEXAROTENE] |  |  |  |  |  |  | 0 | 0 | 0 | 1 | 2 | 0 | 0 | 0 | 0 | 0 | 0 | 0 | 1 | 0 | 
CC(C)(Oc1ccc(CCNC(=O)c2ccc(Cl)cc2)cc1)C(=O)O [BEZAFIBRATE] |  |  |  |  |  |  | 0 | 0 | 0 | 0 | 1 | 0 | 0 | 1 | 0 | 0 | 0 | 0 | 0 | 0 | 
CC(O)(CS(=O)(=O)c1ccc(F)cc1)C(=O)Nc1ccc(C#N)c(C(F)(F)F)c1 (configuration not stated) [BICALUTAMIDE] |  |  |  |  |  |  | 0 | 1 | 0 | 0 | 3 | 0 | 0 | 0 | 0 | 0 | 0 | 0 | 1 | 1 | 
O=C(O)O [BICARBONATE] | 0 | 0 | 0 | 0 | 0 | 0 |  |  |  |  |  |  |  |  |  |  |  |  |  |  | HepSE_elevated liver function tests (Hepatotoxicity [7]; Liver): 0; HepSE_cholelithiasis (Hepatotoxicity [8]; Liver): 0; HepSE_cirrhosis (Hepatotoxicity [9]; Liver): 0; HepSE_liver fatty (Hepatotoxicity [10]; Liver): 0; HepSE_hepatitis (Hepatotoxicity [11]; Liver): 0; HepSE_hepatic necrosis (Hepatotoxicity [12]; Liver): 0; HepSE_hepatic failure (Hepatotoxicity [13]; Liver): 0; HepSE_jaundice (Hepatotoxicity [14]; Liver): 0
CCNC(=O)CCC/C=C\C[C@@H]1[C@@H](/C=C/[C@@H](O)CCc2ccccc2)[C@H](O)C[C@@H]1O [BIMATOPROST] |  |  |  |  |  |  | 0 | 1 | 0 | 0 | 1 | 0 | 0 | 0 | 0 | 0 | 0 | 0 | 0 | 0 | 
OC(CCN1CCCCC1)(c1ccccc1)C1CC2C=CC1C2 (configuration not stated) [BIPERIDEN] |  |  |  |  |  |  | 0 | 0 | 0 | 0 | 0 | 0 | 0 | 0 | 0 | 0 | 0 | 0 | 0 | 0 | 
CC(C)NCC(O)COc1ccc(COCCOC(C)C)cc1 (configuration not stated) [BISOPROLOL] |  |  |  |  |  |  | 0 | 0 | 0 | 0 | 0 | 0 | 0 | 0 | 0 | 0 | 0 | 0 | 0 | 0 | 
CC(C)C[C@H](NC(=O)[C@H](Cc1ccccc1)NC(=O)c1cnccn1)B(O)O [BORTEZOMIB] | 0 | 0 | 0 | 1 | 3 | 0 |  |  |  |  |  |  |  |  |  |  |  |  |  |  | HepSE_elevated liver function tests (Hepatotoxicity [7]; Liver): 0; HepSE_cholelithiasis (Hepatotoxicity [8]; Liver): 0; HepSE_cirrhosis (Hepatotoxicity [9]; Liver): 0; HepSE_liver fatty (Hepatotoxicity [10]; Liver): 0; HepSE_hepatitis (Hepatotoxicity [11]; Liver): 1; HepSE_hepatic necrosis (Hepatotoxicity [12]; Liver): 0; HepSE_hepatic failure (Hepatotoxicity [13]; Liver): 1; HepSE_jaundice (Hepatotoxicity [14]; Liver): 0
COc1ccccc1Oc1c(NS(=O)(=O)c2ccc(C(C)(C)C)cc2)nc(-c2ncccn2)nc1OCCO [BOSENTAN] |  |  |  |  |  |  | 0 | 0 | 0 | 0 | 4 | 0 | 0 | 0 | 1 | 0 | 1 | 0 | 1 | 1 | 
CC[N+](C)(C)Cc1ccccc1Br [BRETYLIUM] |  |  |  |  |  |  | 0 | 0 | 0 | 0 | 0 | 0 | 0 | 0 | 0 | 0 | 0 | 0 | 0 | 0 | 
Brc1c(NC2=NCCN2)ccc2nccnc12 [BRIMONIDINE] | 0 | 0 | 0 | 0 | 0 | 0 |  |  |  |  |  |  |  |  |  |  |  |  |  |  | HepSE_elevated liver function tests (Hepatotoxicity [7]; Liver): 0; HepSE_cholelithiasis (Hepatotoxicity [8]; Liver): 0; HepSE_cirrhosis (Hepatotoxicity [9]; Liver): 0; HepSE_liver fatty (Hepatotoxicity [10]; Liver): 0; HepSE_hepatitis (Hepatotoxicity [11]; Liver): 0; HepSE_hepatic necrosis (Hepatotoxicity [12]; Liver): 0; HepSE_hepatic failure (Hepatotoxicity [13]; Liver): 0; HepSE_jaundice (Hepatotoxicity [14]; Liver): 0
